Test results: patent US8952024B2, “Herbicidal pyrimidone derivatives” (E I du Pont de Nemours and Company, priority 2009, dated 2015)

Assays:
Assay in all cases: Test D pre-/postemergence plant response
Type in all cases: in vivo
[1] = tested on: Russian thistle (Salsola kali)
In short: (§1)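 Ratings come from greenhouse-grown weeds in loam and sand treated pre- or postemergence (postemergence height 2 to 18 cm). Evaluation after 14–21 days, visual, relative to controls, on a 0–100 control scale.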

[2] = tested on: barnyardgrass (Echinochloa crus-galli)
In short: as §1

[3] = tested on: bermudagrass (Cynodon dactylon)
In short: as §1

[4] = tested on: black mustard (Brassica nigra)
In short: as §1

[5] = tested on: dallisgrass (Paspalum dilatatum)
In short: as §1

[6] = tested on: dayflower (Virginia (VA) dayflower, Commelina virginica)
In short: as §1

[7] = tested on: green foxtail (Setaria viridis)
In short: as §1

[8] = tested on: guineagrass (Panicum maximum)
In short: as §1

[9] = tested on: itchgrass (Rottboellia cochinchinensis)
In short: as §1

[10] = tested on: mallow (common mallow, Malva sylvestris)
In short: as §1

[11] = tested on: prickly sida (Sida spinosa)
In short: as §1

[12] = tested on: quackgrass (Elytrigia repens)
In short: as §1

[13] = tested on: ragweed (common ragweed, Ambrosia elatior)
In short: as §1

[14] = tested on: sandbur (southern sandbur, Cenchrus echinatus)
In short: as §1

[15] = tested on: signalgrass (broadleaf signalgrass, Brachiaria platyphylla)
In short: as §1

[16] = tested on: sowthistle (common sowthistle, Sonchus oleraceous)
In short: as §1

[17] = Postemergence, 16 g ai/ha, scale 0 to 100
[18] = Postemergence, 31 g ai/ha, scale 0 to 100
[19] = Postemergence, 62 g ai/ha, scale 0 to 100 (0 no effect, 100 complete control)
[20] = Preemergence, 31 g ai/ha, scale 0 to 100 (0 no effect, 100 complete control)
[21] = Preemergence, 125 g ai/ha, scale 0 to 100
[22] = Postemergence, 31 g ai/ha, scale 0 to 100 (0 no effect, 100 complete control)
[23] = Postemergence, 125 g ai/ha, scale 0 to 100 (0 no effect, 100 complete control)
[24] = Preemergence, 16 g ai/ha, scale 0 to 100, 0 no effect, 100 complete control
[25] = Preemergence, 62 g ai/ha, scale 0 to 100

O=C1CCCC(O)=C1C(=O)c1cnc(-c2ccccc2)n(C2CCCCC2)c1=O [Compound 128, 3-cyclohexyl-5-[(2-hydroxy-6-oxo-1-cyclohexen-1-yl)carbonyl]-2-phenyl-4(3H)-pyrimidinone]
98: Plant response rating, Dallisgrass [5, 21]
70: Plant response rating, Barnyardgrass [2, 22] | Plant response rating, Barnyardgrass [2, 19] | Plant response rating, Bermudagrass [3, 17] | Plant response rating, Bermudagrass [3, 22] | Plant response rating, Dayflower, VA [6, 23] | Plant response rating, Foxtail, Green [7, 23] | Plant response rating, Mallow [10, 20] | Plant response rating, Mallow [10, 25]
90: Plant response rating, Barnyardgrass [2, 23] | Plant response rating, Bermudagrass [3, 23] | Plant response rating, Ragweed [13, 23] | Plant response rating, Ragweed [13, 19]
10: Plant response rating, Dallisgrass [5, 17] | Plant response rating, Dayflower, VA [6, 25]
40: Plant response rating, Foxtail, Green [7, 18] | Plant response rating, Itchgrass [9, 18] | Plant response rating, Itchgrass [9, 19] | Plant response rating, Mallow [10, 23] | Plant response rating, Mallow [10, 19]
20: Plant response rating, Russian Thistle [1, 19] | Plant response rating, Dallisgrass [5, 18] | Plant response rating, Dallisgrass [5, 20] | Plant response rating, Guineagrass [8, 17] | Plant response rating, Itchgrass [9, 21] | Plant response rating, Sandbur [14, 21] | Plant response rating, Sandbur ([14]; Preemergence, rate not given, scale 0 to 100, 0 no effect, 100 complete control)
30: Plant response rating, Dallisgrass [5, 19] | Plant response rating, Guineagrass [8, 18] | Plant response rating, Guineagrass [8, 19] | Plant response rating, Prickly Sida [11, 21] | Plant response rating, Signalgrass [15, 18]
15: Plant response rating, Barnyardgrass [2, 21]
65: Plant response rating, Bermudagrass [3, 25] | Plant response rating, Dallisgrass [5, 25] | Plant response rating, Foxtail, Green [7, 19] | Plant response rating, Itchgrass [9, 23] | Plant response rating, Prickly Sida [11, 19]
60: Plant response rating, Black Mustard [4, 24] | Plant response rating, Black Mustard [4, 20] | Plant response rating, Dallisgrass [5, 23] | Plant response rating, Dayflower, VA [6, 19] | Plant response rating, Prickly Sida [11, 18]
25: Plant response rating, Dayflower, VA [6, 21] | Plant response rating, Foxtail, Green [7, 17] | Plant response rating, Prickly Sida [11, 25]
80: Plant response rating, Bermudagrass [3, 19] | Plant response rating, Prickly Sida [11, 23] | Plant response rating, Sowthistle [16, 24] | Plant response rating, Sowthistle [16, 20]
50: Plant response rating, Dayflower, VA [6, 17] | Plant response rating, Dayflower, VA [6, 18] | Plant response rating, Prickly Sida [11, 17]
100: Plant response rating, Russian Thistle [1, 21] | Plant response rating, Mallow [10, 21] | Plant response rating, Ragweed [13, 21] | Plant response rating, Sowthistle [16, 17] | Plant response rating, Sowthistle [16, 18] | Plant response rating, Sowthistle [16, 23] | Plant response rating, Sowthistle [16, 19] | Plant response rating, Sowthistle [16, 21]
5: Plant response rating, Barnyardgrass [2, 25] | Plant response rating, Mallow [10, 17] | Plant response rating, Mallow [10, 18] | Plant response rating, Quackgrass [12, 23] | Plant response rating, Sandbur [14, 17] | Plant response rating, Sandbur [14, 18] | Plant response rating, Sandbur [14, 19] | Plant response rating, Signalgrass [15, 21]
85: Plant response rating, Black Mustard [4, 25]
95: Plant response rating, Black Mustard [4, 17] | Plant response rating, Black Mustard [4, 22] | Plant response rating, Black Mustard [4, 23] | Plant response rating, Black Mustard [4, 19] | Plant response rating, Black Mustard [4, 21]
75: Plant response rating, Bermudagrass [3, 21] | Plant response rating, Ragweed [13, 18] | Plant response rating, Ragweed [13, 20]
35: Plant response rating, Barnyardgrass [2, 17] | Plant response rating, Guineagrass [8, 23] | Plant response rating, Sandbur [14, 23] | Plant response rating, Signalgrass [15, 23] | Plant response rating, Signalgrass [15, 19]
0: Plant response rating, Russian Thistle [1, 17] | Plant response rating, Russian Thistle [1, 18] | Plant response rating, Russian Thistle [1, 20] | Plant response rating, Barnyardgrass [2, 24] | Plant response rating, Barnyardgrass [2, 20] | Plant response rating, Bermudagrass [3, 24] | Plant response rating, Bermudagrass [3, 20] | Plant response rating, Dallisgrass [5, 24] | Plant response rating, Dayflower, VA [6, 20] | Plant response rating, Foxtail, Green [7, 24] | Plant response rating, Foxtail, Green [7, 20] | Plant response rating, Foxtail, Green [7, 25] | Plant response rating, Foxtail, Green [7, 21] | Plant response rating, Guineagrass [8, 24] | Plant response rating, Guineagrass [8, 20] | Plant response rating, Guineagrass [8, 25] | Plant response rating, Guineagrass [8, 21] | Plant response rating, Itchgrass [9, 17] | Plant response rating, Itchgrass [9, 24] | Plant response rating, Itchgrass [9, 20] | Plant response rating, Itchgrass [9, 25] | Plant response rating, Prickly Sida [11, 24] | Plant response rating, Prickly Sida [11, 20] | Plant response rating, Quackgrass [12, 17] | Plant response rating, Quackgrass [12, 18] | Plant response rating, Quackgrass [12, 19] | Plant response rating, Quackgrass [12, 24] | Plant response rating, Quackgrass [12, 20] | Plant response rating, Quackgrass [12, 21] | Plant response rating, Ragweed [13, 24] | Plant response rating, Sandbur [14, 24] | Plant response rating, Sandbur [14, 20] | Plant response rating, Signalgrass [15, 17] | Plant response rating, Signalgrass [15, 24] | Plant response rating, Signalgrass [15, 20]
